Measured values as given in patent publication US20200247897A1, “THERAPEUTIC ANTIBODIES BASED ON MUTATED IGG HEXAMERS” (GENMAB B.V., priority 2017, published 2020).

Test system: colon, pancreatic, gastric, lung and skin cancer cell lines
Experiment: 3-days CellTiter-Glo viability assay, panel of different human cancer cell lines
Format: cell-based
Details: 133 nM; 11 cell lines (Example 41)

**Q.** How did the “killing of human cancer cell lines” value turn out when “TRAIL: natural DR5 ligand, recombinant human TRAIL/APO-2L” was run?
**A.** show killing of human cancer target cell lines originating from different indications
